Laboratory results taken from US5583155A, “6-amino-1,2-benzopyrones useful for treatment of viral diseases” (Octamer, Inc., priority 1994, dated 1996).
Entries after “also recorded” stand apart in the source; their conditions may differ. Like-named read-outs stand apart in the source and are kept apart here.

Legend:
AA-2 cells = assay: AA-2 cell count and viability; assay type: cell-based; details: 3 mM
Protocol: The effects of 6-ABP treatment of AA-2 cells was directly analyzed by cell count and viability tests including cloning efficiency and trypan blue uptake. The AA2 cell culture having initial cell count per well 0.5×10^5 was submitted to treatment with 3 mM of 6-ABP and compared to untreated (Control) cell culture. The cells were counted 4 days after the treatment with 6-ABP.

[1] = assay type: in vivo
Protocol: This example illustrates the lack of toxicity after intraperitoneal administration of 6-ABP to mice.
Two toxicological tests administering 6-ABP to mice were performed under the following conditions.
One group of 5 mice received 6-ABP i.p. injection in amount of 1 g/kg.
Group of 50 white mice was injected daily with 250 mg/kg 6-ABP i.p. for 12 days.

CMV = assay: microbe, parasite or virus in culture; assay type: cell-based, human cytomegalovirus (patient isolate)
HIV in MT-2 cells = assay: HIV syncytia formation in MT-2 cells; assay type: cell-based; details: 3 mM
Protocol: Whereas the activation of latent HIV by various DNAs and its prevention by 6-ABP were shown above, the following experiments examine the effects of 6-ABP on the direct propagation of highly virulent HIV strain obtained from NIH in Molt III cells, using cell supernatant as source of virus on AA-2 and MT2 cells in culture. More than 60 tests were performed varying virus titers, time of exposure, and exposure to 6-ABP.
Equivalent results, shown in FIG. 9, were obtained with MT-2 cells. In FIG. 9, the inhibition of syncytia formation was quantitatively assayed. […] At very high HIV titre, at 1:100 dilution the untreated syncitia formation was 150 times higher than in treated culture.

Enterovirus (ECHO-11) = assay: microbe, parasite or virus in culture; assay type: cell-based
ADPRT = details: FEBS Lett., 212:73 (1987); cited from earlier work
[2] = Yakugaku Zasshi, cited from earlier work
HIV in whole blood = assay: HIV inhibition in whole blood of HIV infected patients; assay type: cell-based; details: FIG. 10 results repeated in whole blood
HIV in U937 cells = assay: HIV growth in U937 cells without activator (syncytium-forming assay); assay type: cell-based, HIV-1
Protocol: In order to assess a possible direct effect of the drug on the growth of HIV, experiments shown in FIG. 3 were reproduced, except that conditions of virus titration (by SFU) were refined, to detect relatively low virus titers.
Transfection was 24 hours before HIV infection.

[3] = system: HIV in human lymphoblasts; assay: HIV in human lymphoblasts (reverse transcriptase assay); assay type: cell-based; details: 18 hours exposure, FIG. 11E
Protocol: In FIGS. 11A through 11E, normal lymphoblasts stimulated with PHA are infected with HIV and at the same time are submitted to various concentrations from 0-10 mM 6-ABP. After the short exposure of 18 hours, both HIV and 6-ABP are removed, FIGS. 11A, 11C, 11E and the 6-ABP in the same concentrations is readded up to 4 days to cultures shown in FIGS. 11B and 11D. At 4 days, proliferation index measured by ^3 H-thymidine incorporation is determined in FIGS. 11A and 11B. […] In FIGS. 11C and […], the viral synthesis or inhibition is measured by p 24 assay.
Human peripheral blood mononuclear cells from a noninfected, normal individual were stimulated for 2 to 3 days with phytohemagglutinin in tissue culture, washed, aliquoted and cultured overnight with 200 TCID or 50 TCID of HIV and were untreated or treated with 0.01, 0.1, 1.0 or 10.0 mM 6-ABP. An additional control was incubated with 10 mM 6-ABP without presence of HIV. After the overnight incubation, […]. The cells were placed in culture in medium containing IL-2, but in the absence of additional 6-ABP, and monitored at 6 days and 12 days for the production of HIV-p24 core antigen, or for measurements of particulate reverse transcriptase. […]
HIV p24 antigen was measured by ELISA, with a cutoff of 5 pgm/ml. […]

established cell lines = assay: Intracellular drug concentration / transport in twelve cell lines; assay type: in vitro ADME
Protocol: It is of importance to determine both intracellular drug concentrations and mechanisms of drug transport. Twelve different cell types were incubated with varying concentrations of the drug for varying periods and intracellular drug concentration assayed with the aid of [5^3 H] labeled 6-ABP. […] Thus, there is a significant transport regulation through the cell membrane.

HSV-2 strain G = assay: microbe, parasite or virus in culture; assay type: cell-based, Herpes simplex virus type 2
HIV-LTR = assay: cells
Protocol: All chimeric CAT constructions were prepared in pCATB' containing the CAT structural gene without eukaryotic promoter sequence.
DNA transfection was performed with DEAE dextran. Briefly, U937 cells (5×10^6) were exposed for 60 min. at 37° C. to a mixture of DEAE Dextran (1.05 ug/ml) and DNA in STBS buffer (25 mM Tris HCl, having pH 7.5, 137 mM NaCl, 0.5 MgCl2, 0.7 mM CaCl2 and 5 mM KCl and 0.6 mM Na2 HPO4) in 15 ml snap cap 6×35 mm polyethylene dishes from Costar, Cambridge, Mass., at 5×10^6 cells per well. Routinely, transfection mixtures contained 1.0 ug of target supercoiled plasmid and 0.1 ug DNA to equalize nucleic acid concentration effects. Transfected cells were harvested 40 to 44 hr post transfection in CAT harvest buffer (40 mM Tris, having pH 7.4 150 mM NaCl, 1 mM EDTA) and stored at -20° C. until assayed.
Routine assay conditions employed 0.2 uCi of [^14 C]-chloramphenicol substrate and an incubation time of 60 min. For quantitative estimates of CAT activity and fold activation, the appropriate sections were cut from the thin-layer chromatography scintillation fluid added and the radioactivity was counted in a scintillation counter. Quantitative comparisons were made by measuring the amounts of chloramphenicol-acetate product with enzyme concentrations and time. pSV CAT was used as a positive control, and the parent (pCATB') was used as a negative control. […]

[4] = 1 mM 6-ABP, 24 hours before infection

With `Nc1ccc2oc(=O)ccc2c1` [6-ABP, 6-amino-1,2-benzopyrone] the “cell proliferation” value (AA-2 cells; AA-2 cells) was “inhibitory effect on cell proliferation”, the “Viability test / cellular toxicity” value (AA-2 cells; AA-2 cells, cloning efficiency and trypan blue uptake) was “no evidence of toxic effects; also recorded: does not coincide with any detectable cellular toxicity” and the “Cell Count After 4 days” value (AA-2 cells; initial count per well 0.5 × 10^5, control 1.5 × 10^5) was 0.7 × 10^5 (± 35%). For the same compound, the “behavior” value ([1]; 250 mg/kg i.p. daily, 12 days) was “quite normal”, the “toxic effects” value ([1]; 250 mg/kg i.p. daily, 12 days) was “no visible toxic effects” and the “weight gain” value ([1]; 250 mg/kg i.p. daily, 12 days) was “no disruption in their normal weight gain”. The “seizures and weakness in one mouse” value ([1]; 1 g/kg i.p., 4 hours after injection, recovered in 18 hours) was “seizures and hind leg weakness but then completely recovered in 18 hours”, the “toxic symptoms” value ([1]; 1 g/kg i.p., single, 24 hours observation) was “no toxic symptoms in 4 mice” and the “Virus Titer +6-ABP (CMV)” value (CMV; [4]) was 1 × 10^3 TCID50. The “effect on CMV growth” value (CMV; 6-ABP treatment) was “effectively inhibits CMV growth”, the inhibition at 1000 µM (CMV; Human betaherpesvirus 5, 1 mM 6-ABP, 24 hours before infection) was 90% and the “HIV production / syncytia formation in MT-2 cells” value (HIV in MT-2 cells) was “nearly completely suppressed HIV production”. For the same compound, the “untreated syncytia formation relative to treated culture” value (HIV in MT-2 cells; HIV titre 1:100 dilution) was 150 times, the “Virus Titer +6-ABP (Enterovirus)” value (Enterovirus (ECHO-11); 1 mM 6-ABP, 24 hours before infection, ECHO-11) was 1.6 × 10^6 TCID50 and the “effect on Enterovirus growth” value (Enterovirus (ECHO-11); 6-ABP treatment) was “no effect”. The inhibition at 1000 µM (Enterovirus (ECHO-11); Enterovirus, 1 mM 6-ABP, 24 hours before infection, ECHO-11) was 0%, the “binding to ADPRT” value (ADPRT) was “specifically binding to ADPRT at the same site that also binds catalytically effective DNA termini” and the “hypothermal effect” value ([2]; 78:491 (1958)) was 6-amino group decreased the hypothermal effect. For the same compound, the “antipyretic, hypnotic, hypotensive and adrenolytic action” value ([2]; 83:1124 (1963)) was “Some antipyretic, hypnotic, hypotensive and adrenolytic action”, the “HIV inhibition in whole blood” value (HIV in whole blood) was “essentially reproduced in whole blood of HIV infected patients” and the “effect on HIV growth without activator” value (HIV in U937 cells; 3 mM, FIGS. 3 and 4) was “completely inhibit any viral growth; also recorded: significant effect on HIV growth”. The “effect on HIV growth in absence of activating HSV gene” value (HIV in U937 cells; Table 2 experiment) was “significant reduction in HIV growth”, the “HIV growth, U937 + 6-ABP” value (HIV in U937 cells; day 3, no activator) was 13 SFU/ml and the “HIV growth, U937 + 6-ABP” value (HIV in U937 cells; day 5, no activator) was 10 SFU/ml. The “HIV growth, U937 + 6-ABP” value (HIV in U937 cells; day 6, no activator) was 10 SFU/ml, the “HIV growth, U937 + 6-ABP” value (HIV in U937 cells; day 8, no activator) was 10 SFU/ml and the “virus inhibition, reverse transcriptase assay” value [3] was “virus inhibition”. The “concentration of intracellular drug” value (established cell lines; 1 mM extracellular administration, depending on cell types) was 65 to 200 µM, the “intracellular plateau, % of drug concentration applied extracellularly” value (established cell lines; 12 established cell lines) was 10-20% and the “time to plateau of 6-ABP transport” value (established cell lines; 12 established cell lines) was 18 to 24 h. For the same compound, the “penetration of mammalian cells” value (established cell lines; physiological pH 7.2-7.4) was “to a limited degree”, the “Virus Titer +6-ABP (HSV-2)” value (HSV-2 strain G; [4]) was 2 × 10^5 PFU per ml and the “effect of time of drug addition, HSV-2 (G)” value (HSV-2 strain G; 1, 5 and 10 mM, zero time vs 4 hours after infection) was “essentially no differences found between the two modes of drug exposure”. For the same compound, the “inhibition of HSV-2 strain G growth” value (HSV-2 strain G; 1-10 mM, 24 hours pretreatment, HEp-2 cells) was 90-97%, the inhibition at 1000 µM (HSV-2 strain G; Human alphaherpesvirus 2, 0 h, 1 mM at 0 hours (time of infection), read-out: inhibition of HSV-2 growth) was 85% and the inhibition at 1000 µM (HSV-2 strain G; Human alphaherpesvirus 2, 1 mM 6-ABP, 24 hours before infection, read-out: % Inhibition (HSV-2), Table 1) was 87.5%. It also gave an inhibition at 1000 µM (HSV-2 strain G; Human alphaherpesvirus 2, 1 mM, 24 hours pretreatment, read-out: inhibition of HSV-2 growth) of 90%, an inhibition at 1000 µM (HSV-2 strain G; Human alphaherpesvirus 2, 4 h, 1 mM at 4 hours post infection, read-out: inhibition of HSV-2 growth) of 72% and an inhibition at 200 µM (HSV-2 strain G; Human alphaherpesvirus 2, HEp-2, 0.2 mM, 24 hours pretreatment, HEp-2 cells, read-out: inhibition of HSV-2 strain G growth) of ~45%. It also gave a fold induction at 5000 µM (HIV-LTR; Human immunodeficiency virus 1, U-937, read-out: Fold Activation, HSV-IE-110 + 6-ABP, 5 mM 6-ABP, HSV-IE-110) of 20 and a fold induction at 2000 µM (HIV-LTR; Human immunodeficiency virus 1, U-937, read-out: HIV-LTR-CAT activation by IE-110 after treatment, 2 mM 6-ABP, FIG. 5, 344-fold activation without drug) of 0.4 to 0.9.
